# The supplement of paper PMC10307832
# Tests used:
# Assay in all cases: relative viability (nuclei count vs DMSO), 5 days (fraction); higher = more cells survive
# [1] = compound: CC(C)N(CCCNC(=O)Nc1ccc(C(C)(C)C)cc1)C[C@H]1O[C@@H](n2ccc3c(N)ncnc32)[C@H](O)[C@@H]1O + C[C@]1(O)C[C@@H](c2nc(-c3ccc4ccc(-c5ccccc5)nc4c3)c3c(N)nccn32)C1 [Linsitinib] (partner 1 µM)
# Method in brief: (§1)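 Nuclei were stained with Hoechst during a one-step fixation (final 0.05% Triton X-100, 1% formaldehyde, 1 ug/ml Hoechst) carried out 5 days after dosing, then counted on 4× images. The cells, lung cancer lines in 1536-well plates, had been dosed by pin tool the day after seeding with one drug alone or a fixed anchor-drug dose plus five library-drug doses (not always all listed) in √10 steps. Relative viability is the nuclei count in treated wells divided by that in vehicle wells, and each value is the median of duplicate plates.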
# [2] = compound: CC(C)=CC[C@@H](O)C1=CC(=O)c2c(O)ccc(O)c2C1=O [Shikonin] + CC1(C)CCC(c2ccc(Cl)cc2)=C(CN2CCN(c3ccc(C(=O)NS(=O)(=O)c4ccc(N[C@H](CCN5CCOCC5)CSc5ccccc5)c(S(=O)(=O)C(F)(F)F)c4)cc3)CC2)C1 [Navitoclax] (partner 0.5 µM)
# Method in brief: as §1
# [3] = compound: CC(C)N(CCCNC(=O)Nc1ccc(C(C)(C)C)cc1)C[C@H]1O[C@@H](n2ccc3c(N)ncnc32)[C@H](O)[C@@H]1O + C[C@@H](Oc1cc(-c2cnn(C3CCNCC3)c2)cnc1N)c1c(Cl)ccc(F)c1Cl [Crizotinib] (partner 1 µM)
# Method in brief: as §1
# [4] = compound: CC(C)=CC[C@@H](O)C1=CC(=O)c2c(O)ccc(O)c2C1=O [Shikonin] + CC(=O)c1c(C)c2cnc(Nc3ccc(N4CCNCC4)cn3)nc2n(C2CCCC2)c1=O [Palbociclib] (partner 0.5 µM)
# Method in brief: as §1
cell line,measurement,setting,value
SW 1573,relative viability,[1]; first compound 0.08 µM,0.603
same,relative viability,[1]; first compound 0.253 µM,0.872
same,relative viability,[1]; first compound 0.8 µM,0.848
same,relative viability,[1]; first compound 2.53 µM,0.976
same,relative viability,[1]; first compound 8 µM,0.825
same,relative viability,[2]; first compound 0.01 µM,1.2
same,relative viability,[2]; first compound 0.1 µM,1.13
same,relative viability,[2]; first compound 0.3162 µM,1.01
same,relative viability,[2]; first compound 1 µM,0.869
same,relative viability,[3]; first compound 0.08 µM,0.749
same,relative viability,[3]; first compound 0.253 µM,0.894
same,relative viability,[3]; first compound 0.8 µM,0.825
same,relative viability,[3]; first compound 2.53 µM,0.846
same,relative viability,[3]; first compound 8 µM,0.695
same,relative viability,[4]; first compound 0.01 µM,0.513
same,relative viability,[4]; first compound 0.1 µM,0.344
same,relative viability,[4]; first compound 0.3162 µM,0.323
same,relative viability,[4]; first compound 1 µM,0.093
